Laboratory results: patent US7446122B2, “Substituted indole derivatives” (Cephalon, Inc., priority 2003, dated 2008)

Experiments:
[1] = system: prostate cancer cell line (LNCaP); experiment: Cell cytotoxicity, MTT assay, LNCaP; format: cell-based; conditions: Homo sapiens, 72 h, three days incubation
Experimental: (§1) Normal prostate cells (PREC, Cambrex East Rutherford N.J.), prostate cancer cell line (LNCaP, ATCC), PBL (peripheral blood leukocytes-buffy coat San Diego Blood Bank), and primary CLL cells were incubated for one to two days in RPMI-1640 and 10% FBS (fetal bovine serum). They were plated in 96-well plates at 100,000 cells/well. Titrated concentrations of the compound to be tested were added to the culture medium. The cells were incubated three days at 37° C., 5% CO2. Viability of the cells was assayed by standard MTT assay. Each drug concentration was done in duplicate. MTT assay: 10 μl of 12 mM 3,[4,5-dimethylthiazol-2-yl]-2,5-diphenyltetrazolium bromide (MTT) (SIGMA) was added to each well. The cells were incubated at 37° C., 5% CO2 for 4 hours. 100 μl of 20% SDS, 0.015M HCl was added to each well and the cells were incubated overnight. The plates were read at absorbance 595 nm.

[2] = system: primary CLL cells; experiment: Cell cytotoxicity, MTT assay, primary CLL cells; format: cell-based; conditions: 72 h, three days incubation
Experimental: as §1

[3] = system: PBL (peripheral blood leukocytes); experiment: Cell cytotoxicity, MTT assay, PBL; format: cell-based; conditions: Leukocyte, 72 h, three days incubation
Experimental: as §1

[4] = target: T1, Cyclooxygenase-2 (human recombinant, expressed in Sf9 cell) (Homo sapiens, UniProt P35354); experiment: Cox-2 assay: human recombinant cyclooxygenase-2, PGE2 by EIA; format: biochemical; conditions: human recombinant enzyme; for IC50: 0.3 μM arachidonic acid, PGE2; for inhibition at 10 µM: compounds are screened at 10 μM
T1 construct: purchased Cayman 60122; host or cells: Sf9 cell
T1 sequence (P35354 18-604): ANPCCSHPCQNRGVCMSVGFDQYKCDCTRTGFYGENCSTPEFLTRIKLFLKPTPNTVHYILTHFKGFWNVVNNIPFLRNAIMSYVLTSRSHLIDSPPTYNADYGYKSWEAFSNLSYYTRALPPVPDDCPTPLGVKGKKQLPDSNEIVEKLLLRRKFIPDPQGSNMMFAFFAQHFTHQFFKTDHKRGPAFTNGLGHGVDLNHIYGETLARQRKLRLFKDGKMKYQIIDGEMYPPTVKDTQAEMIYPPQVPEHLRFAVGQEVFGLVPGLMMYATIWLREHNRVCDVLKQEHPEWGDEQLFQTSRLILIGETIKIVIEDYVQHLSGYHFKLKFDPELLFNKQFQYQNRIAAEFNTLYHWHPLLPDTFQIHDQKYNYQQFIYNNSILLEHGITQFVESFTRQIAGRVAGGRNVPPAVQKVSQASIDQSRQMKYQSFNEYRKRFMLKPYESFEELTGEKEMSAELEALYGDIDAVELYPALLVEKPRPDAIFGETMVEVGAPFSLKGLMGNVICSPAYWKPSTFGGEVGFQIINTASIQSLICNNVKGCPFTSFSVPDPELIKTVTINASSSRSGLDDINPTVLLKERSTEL
Experimental: Test compound and/or vehicle is pre-incubated with 0.11 U cyclooxygenase-2, 1 mM reduced glutathione (GSH), 500 μM phenol and 1 μM hematin for 15 minutes at 37° C. The reaction is initiated by addition of 0.3 μM arachidonic acid as substrate in Tris-HCl pH 7.7 and terminated after a 5 minute incubation at 37° C. by addition of 1N HCl. Following centrifugation, substrate conversion to PGE2 is measured by an Amersham EIA kit. Compounds are screened at 10 μM. […] J. Physiol.

[5] = system: Normal prostate cells (PREC); experiment: Cell cytotoxicity, MTT assay, PREC; format: cell-based; conditions: Homo sapiens, 72 h, three days incubation
Experimental: as §1

[6] = target: T2, COX-1 (Homo sapiens, UniProt P23219); experiment: Cox-1 assay: PGE2 formation in human platelets; format: cell-based; conditions: for IC50: arachidonic acid 100 μM, PGE2; for inhibition at 10 µM: compounds are screened at 10 μM
T2 construct: endogenous in cells; host or cells: human platelets
T2 sequence (P23219 24-599): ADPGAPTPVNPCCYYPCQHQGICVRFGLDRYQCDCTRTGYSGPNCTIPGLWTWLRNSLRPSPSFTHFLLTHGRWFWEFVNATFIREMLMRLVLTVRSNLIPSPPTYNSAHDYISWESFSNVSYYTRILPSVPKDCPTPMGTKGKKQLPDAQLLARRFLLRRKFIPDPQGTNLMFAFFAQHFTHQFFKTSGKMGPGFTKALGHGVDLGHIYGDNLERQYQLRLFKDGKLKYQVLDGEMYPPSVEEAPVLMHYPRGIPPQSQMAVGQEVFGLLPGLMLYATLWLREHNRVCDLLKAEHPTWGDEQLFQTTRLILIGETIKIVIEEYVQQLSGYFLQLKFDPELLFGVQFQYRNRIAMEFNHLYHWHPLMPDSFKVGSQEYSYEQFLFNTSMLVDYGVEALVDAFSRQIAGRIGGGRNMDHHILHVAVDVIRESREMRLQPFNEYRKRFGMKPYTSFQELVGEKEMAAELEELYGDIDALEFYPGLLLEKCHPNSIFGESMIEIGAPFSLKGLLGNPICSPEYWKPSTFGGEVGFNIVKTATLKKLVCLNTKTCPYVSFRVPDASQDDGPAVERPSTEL
Experimental: Test compound and/or vehicle is incubated with human platelets (10^8/ml) containing the phospholipase inhibitor MLnFP (100 μM) for 15 minutes at 37° C. Arachidonic acid (100 μM) is then added for a further 15 minute incubation period. The reaction is stopped by addition of 1 N HCl and neutralized with 1N NaOH. PGE2 levels in the supernatant are determined using the Amersham EIA kit. […]

[7] = system: cyclin D1 transcripts in LNCaP cells; experiment: Cyclin D1 transcript expression by quantitative PCR in LNCaP cells; format: cell-based; conditions: 24 hours, compound 42 (50 μM), compound 36 (100 μM), compound 1 (20 μM), normalized to 18s, FIG. 2
Experimental: Cyclin D1 Transcript Expression Levels as measured by quantitative PCR assay. LNCaP cells were cultured at 37° C., 5% CO2 for 24 hours untreated or in the presence of R-etodolac (200 μM), compound 42 (50 μM), compound 36 (100 μM), or compound 1 (20 μM) (see Table II for structures). Cells were harvested by trypsinization, washed with PBS, and stored at −80° C. Total cellular RNA was prepared from cell pellets using the RNEasy® Mini kit (Qiagen, Inc., Valencia, Calif.). RNA was quantified by spectrophotometer. Approximately 2 μg of RNA was used to prepare cDNA using the ThermoScript™ RT-PCR System (Invitrogen, Carlsbad, Calif.).
The levels of cyclin D1 transcripts in the cDNA samples were measured using a quantitative PCR (qPCR) assay specific for cyclin D1. The cyclin D1 transcript was amplified using the following primer pair:
The cyclin D1 primers are described in a manuscript from Takayasu et al. (2001 Clin. Cancer Res. 7:901-908). All assays were performed in duplicate. All qPCR assays were performed and analyzed using a Bio-Rad iCycler (Bio-Rad, Hercules, Calif.). The levels of cyclin D1 transcripts were normalized for total input cDNA by performing a separate assay to detect the levels of a housekeeping gene (18s) using the following primer pair:
The samples were normalized for 18s transcript levels using the method of Livak et al. (2001 Methods 25:402-408). The level of cyclin D1 transcripts in the control sample was set to 1. FIG. 2 represents the averaged normalized cyclin D1 transcripts±standard deviation for three independent experiments (two independent experiments for compound 1).

[8] = system: Daudi human Burkitt Lymphoma derived tumors; experiment: Daudi lymphoma murine xenograft model, efficacy; format: in vivo, male SCID mice; conditions: for mean tumor volume at termination of the study: p.o. in sesame oil, compound 47 250, compound 36 (printed 26) 250, compound 1 125, R-etodolac 400 mg/kg/d, control 1583 mm^3; for 4× Growth: time for the tumors to grow to 4× the initial volume at dosing, control 8.9 d; for 8× Growth: time for the tumors to grow to 8× the initial volume at dosing, control 14.5 d
Experimental: Male SCID mice, 6-8 weeks of age, obtained from Simonsen Laboratories, Inc. (Gilroy, Calif.) were housed in groups of five.
The Daudi human Burkitt Lymphoma cells were obtained from American Type Culture Collection and were inoculated subcutaneously (1.0×10^7 cells/mouse) on the flanks of SCID mice. After the tumors reached approximately 100 mm^3 treatment was initiated.
Body weights and tumor volume of all mice were measured and recorded twice weekly. Tumors were measured in three dimensions and volume calculated using the formula: […]. Time for the tumors (days) to grow to 4× and 8× the initial volume at dosing were assessed. Study compounds were administered at 125 or 250 mg/kg/day (M-F) via oral gavage until the end of the study.
The efficacy of chlorambucil (2 and 3 mg/kg/d), (R-etodoalc) (400 mg/kg/d) and compound 47 (250 mg/kg/d), compound 26 (250 mg/kg/d), and compound 1 (125 mg/kg/d) against Daudi derived tumors in male SCID mice were studied. R-etodolac and compounds 1, 26 and 47 were prepared in sesame oil. Both chlorambucil (ip, 0.1 ml) and compounds of the invention (per os [p.o.], 0.31 ml) were dosed daily (Monday to Friday) for two weeks. SDX-101 (0.31 ml) was dosed p.o. daily until the end of the study. […] However, all treated mice recovered after Day 2 and maintained their weights. There was no body weight loss observed in other treatment groups. At termination of the study, the control group mean tumor volume was 1583 mm^3. The mean tumor volume of chlorambucil treated groups were 864 and 766 mm^3 with 2 and 3 mg/kg/d chlorambucil treatment, respectively. The mean tumor volume of R-etodolac and compounds 1, […] and 47 were 802, 996, 1011, and 1157 mm^3 with compounds 47, 36, 1 and R-etodolac treatment, respectively. […] At termination of the study, tumor samples along with liver, kidney, and spleen samples from each group were collected and fixed in 10% buffered formalin for histopathology.

[9] = system: Cyclin D1 protein in LNCaP cells; experiment: Western blot of Cyclin D1 protein in LNCaP cell lysates; format: cell-based; conditions: LNCaP cell lysates from treated cells

SMILES | IC50 [1] [µM] | melting point [°C] | IC50 [2] [µM] | IC50 [3] [µM] | IC50 [4] [µM] | inhibition at 10 µM [4] [%] | IC50 [5] [µM] | IC50 [6] [µM] | inhibition at 10 µM [6] [%] | cyclin D1 mRNA expression [7] | mean tumor volume at termination of the study [8] [mm^3] | 4× Growth [8] [days] | 8× Growth [8] [days] | Cyclin D1 protein expression (Western blot) [9]
CCC1(CCO)OCCc2c1[nH]c1ccc(C)cc21 (stereo not drawn) [Compound 24, 2-(1-ETHYL-6-METHYL-1,3,4,9-TETRAHYDRO-PYRANO[3,4-b]INDOL-1-YL)-ETHANOL] | 80 | 114 to 115 |  |  |  |  |  |  |  |  |  |  |  | 
CCc1cccc2c3c([nH]c12)[C@@](CC)(CCO)OCC3 [Compound 35, R-2-(1,8-DIETHYL-1,3,4,9-TETRAHYDRO-PYRANO[3,4-b]INDOL-1-YL)-ETHANOL] | 68 |  | 100 | 140 | > 300 | -10 | 220 | > 300 | -69 |  |  |  |  | 
CCC1(CCO)OCCc2c1[nH]c1c(C)cccc21 (stereo not drawn) [Compound 25, 2-(1-ETHYL-8-METHYL-1,3,4,9-TETRAHYDRO-PYRANO[3,4-b]INDOL-1-YL)-ETHANOL] | 60 | 68 |  |  |  |  |  |  |  |  |  |  |  | 
CCC1(CCO)OCCc2c1[nH]c1c(C(C)C)cccc21 (stereo not drawn) [Compound 36, 2-(1-ETHYL-8-ISOPROPYL-1,3,4,9-TETRAHYDRO-PYRANO[3,4-b]INDOL-1-YL)-ETHANOL] | 30 |  | 50 | 160 | > 300 | 18 | 160 | > 300 | -4 | inhibit cyclin D1 mRNA expression | 996 | 13.5 | 20.8 | reduced Cyclin D1 protein expression
CCc1cccc2c3c([nH]c12)C(CC)(CC(=O)O)OCC3 (stereo not drawn) [Etodolac, reference compound] | 122 |  | 200 | 350 | > 300 | -14 | 416 |  |  |  |  |  |  | 
CCC1(CCO)OCCc2c1[nH]c1c(Cl)cccc21 (stereo not drawn) [Compound 27, 2-(8-CHLORO-1-ETHYL-1,3,4,9-TETRAHYDRO-PYRANO[3,4-b]INDOL-1-YL)-ETHANOL] | 52 |  | 52 | 150 | > 300 | 3 | 140 | > 300 | 24 |  |  |  |  | 
CCc1cccc2c3c([nH]c12)[C@@](CC)(CC(=O)O)OCC3 [R-etodolac, reference compound] |  |  |  |  |  |  |  |  |  |  | 1157 | 11 | 17 | reduced Cyclin D1 protein expression
CCc1cc(-c2ccccc2)cc2c3c([nH]c12)C(CC)(CCO)OCC3 (stereo not drawn) [Compound 1, 2-(1,8-DIETHYL-6-PHENYL-1,3,4,9-TETRAHYDRO-PYRANO[3,4-b]INDOL-1-YL)-ETHANOL] | 14 |  | 72 | 76 | < 10 | 100 | 53 | < 10 | 96 | inhibit cyclin D1 mRNA expression | 1011 | 15.8 | 21.1 | reduced Cyclin D1 protein expression
CCc1cc(Br)cc2c3c([nH]c12)C(CC)(CCO)OCC3 (stereo not drawn) [Compound 47, 2-(6-BROMO-1,8-DIETHYL-1,3,4,9-TETRAHYDRO-PYRANO[3,4-b]INDOL-1-YL)-ETHANOL] | 3 |  | 21 | 60 | > 100 | 78 | 14 | 68.6 | 45 |  | 802 | 16 | 21.5 | 
CCC1(CCO)OCCc2c1[nH]c1ccc(Br)cc21 (stereo not drawn) [Compound 42, 2-(6-BROMO-1-ETHYL-1,3,4,9-TETRAHYDRO-PYRANO[3,4-b]INDOL-1-YL)-ETHANOL] | 12 |  |  |  |  |  |  |  |  | inhibit cyclin D1 mRNA expression |  |  |  | reduced Cyclin D1 protein expression
CCC1(CCO)OCCc2c1[nH]c1c(C)cc(C)cc21 (stereo not drawn) [Compound 45] | 8 |  |  | 90 |  |  |  |  |  |  |  |  |  | 
